# Reference: US20100317687A1, “2-BENZOYLIMIDAZO[1,2-a]PYRIDINE DERIVATIVES, PREPARATION THEREOF AND THERAPEUTIC USE THEREOF” (sanofi-aventis, priority 2008, published 2010)
# Molecular target: T1, mouse Nurr1 receptor (Mus musculus, UniProt Q06219)
# T1 construct: a cell line (N2A) endogenously expressing the mouse Nurr1 receptor; host or cells: Neuro-2A (N2A) mouse neuroblastoma cells stably transfected with 8NBRE-luciferase
# Assay: In vitro activity on N2A cells (NBRE-luciferase reporter)
# Type: cell-based
# Details: N2A-8NBRE cells, 24 hours incubation
# Description: The activity of the compounds according to the invention was evaluated on a cell line (N2A) endogenously expressing the mouse Nurr1 receptor and stably transfected with the NOT binding response element (NBRE) coupled to the luciferase reporter gene. The EC50 values are between 0.01 and 1000 nM. The tests were carried out according to the procedure described below.
# The Neuro-2A cell line comes from a standard commercial source (ATCC). The Neuro-2A clone was obtained from a spontaneous tumour originating from a mouse A albino strain produced by R. J Klebe et al. This Neuro-2A line is subsequently stably transfected with 8NBRE-luciferase. The N2A-8NBRE cells are cultured at a confluence in 75 cm^2 culture flasks containing DMEM supplemented with 10% of foetal calf serum, 4.5 g/l of glucose and 0.4 mg/ml of geneticin. After one week of culture, the cells are recovered with 0.25% trypsin for 30 seconds, and then resuspended in DMEM without phenol red, containing 4.5 g/l of glucose and 10% of Hyclone defatted serum, and deposited in white, transparent-bottom, 96-well plates. The cells are deposited in a proportion of 60 000 per well in 75 μl for 24 hours before the addition of the products. The products are applied in 25 μl and incubated for a further 24 hours. On the day of the measurement, an equivalent volume (100 μl) of Steadylite, is added to each well, followed by a waiting period of 30 minutes in order to obtain complete lysis of the cells and maximum production of the signal. The plates are then measured in a microplate luminescence counter after having been sealed with an adhesive film. The products are prepared in the form of a stock solution at 10^−2 M, and then diluted in 100% of DMSO. Each product concentration is diluted beforehand in culture medium before incubation with the cells thus containing a final concentration of 0.625% of DMSO.
# T1 sequence (Q06219 whole entry): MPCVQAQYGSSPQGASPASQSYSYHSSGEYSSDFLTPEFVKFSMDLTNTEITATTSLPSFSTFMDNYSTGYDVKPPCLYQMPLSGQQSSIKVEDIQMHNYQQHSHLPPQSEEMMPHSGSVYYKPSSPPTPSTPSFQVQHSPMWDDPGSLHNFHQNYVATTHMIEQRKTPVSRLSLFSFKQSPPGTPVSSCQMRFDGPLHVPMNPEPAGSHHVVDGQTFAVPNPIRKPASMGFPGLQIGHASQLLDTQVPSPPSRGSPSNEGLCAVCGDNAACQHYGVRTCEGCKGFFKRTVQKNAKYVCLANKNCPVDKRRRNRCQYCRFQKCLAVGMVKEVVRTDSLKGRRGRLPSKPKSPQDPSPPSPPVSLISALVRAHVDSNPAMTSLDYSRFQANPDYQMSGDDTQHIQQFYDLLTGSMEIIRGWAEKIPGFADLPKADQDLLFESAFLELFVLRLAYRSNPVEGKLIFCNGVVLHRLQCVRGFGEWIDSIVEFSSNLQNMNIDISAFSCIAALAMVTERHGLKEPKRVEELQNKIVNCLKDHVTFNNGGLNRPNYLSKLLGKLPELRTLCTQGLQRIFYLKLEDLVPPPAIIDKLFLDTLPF
row,EC50 [nM],SMILES
1,0.5,"O=C(c1ccccc1)c1cn2cc(-c3cn[nH]c3)ccc2n1 [Compound 4, Phenyl[6-(1H-pyrazol-4-yl)imidazo[1,2-a]pyridin-2-yl]methanone]"
2,0.7,"Nc1cccc(-c2ccc3nc(C(=O)c4ccccc4)cn3c2)n1 [Compound 1, [6-(6-Aminopyridin-2-yl)imidazo[1,2-a]pyridin-2-yl](phenyl)-methanone]"
3,0.5,"O=C(c1ccccc1)c1cn2cc(-c3cccnc3)ccc2n1 [Compound 7, phenyl[(6-pyridin-3-yl)imidazo[1,2-a]pyridin-2-yl]methanone]"
